Measured values reported in US20100041672A1, “USE OF QUINOLINE DERIVATIVES IN THE TREATMENT OF PAIN AND IRRITABLE BOWEL SYNDROME” (GLAXO GROUP LIMITED, priority 2007, published 2010).

Assays:
[1] = tested on: male Sprague Dawley rats; experiment: rat intra rectal mustard oil model of visceral pain; type: in vivo; conditions: for reduction in behaviours compared to vehicle treated animals: behaviours counted 25 minutes; for statistical significance of reduction in behaviours vs vehicle: orally 60 minutes prior to mustard oil, all doses examined
Experimental: All behavioural responses consistent with the presence of pain were determined following intra rectal injection of mustard oil in male Sprague Dawley rats. Typical behavioural responses consistent with the presence of pain following intra-colonic mustard oil injection include: arching, abdominal lifting, abdominal tensing, stretching, extending the rear leg (when lying down), raising and lowering the testicles, tip-toeing and writhing.
Male Sprague Dawley rats (130 g-160 g) were briefly sedated with 50% oxygen/50% carbon dioxide and 0.2 ml of 3% mustard oil injected into the colorectum, 1.5 cm from the anus. The anus was plugged with vaseline and animals placed in observational cages to which they had previously been acclimatised for 45 minutes prior to mustard oil injection. The number of visceral pain related behaviours, which consisted primarily of abdominal arching, were counted over a 25 minute period and the animals culled by cervical dislocation.
In separate studies, the effects of alosetron (0.1, 0.3 and 1.0 mg/kg n=10 per group), gabapentin (10, 30 and 100 mg/kg n=10 per group) and amitriptyline (3, 10 and 30 mg/kg n=9-10 per group) or vehicle (saline for alosetron and amitriptyline 10% 1-Methyl-2-pyrolidone in saline for gabapentin n=10 per study) given sub cutaneously 15 minutes prior to injection of 3% mustard oil were examined on pain behaviour. Results in FIGS. 4, 5 and 6 are expressed as mean±sem percentage of behaviours compared to vehicle treated animals and were statistically compared to vehicle treated animals using a one way ANOVA with Dunnett's comparison, p<0.05 considered significant.
The effect of SB742457 (0.03, 0.1, 1.0, 3.0 and 10 mg/kg, n=10 per group for the 0.03, 0.1 and 10 mg/kg groups, and n=20 for the 1.0 and 3.0 mg/kg groups) or vehicle (saline n=20) given orally 60 minutes prior to injection of mustard oil (3% mustard oil, 70% ethanol in saline) were examined on pain behaviour. The total number of visceral pain related behaviours, which consisted primarily of abdominal arching, were counted over a 25 minute period and the animals culled by cervical dislocation. Behaviours were normalised as the percentage of the vehicle group mean and expressed as mean+/−sem. Data was combined from two studies and normalised as the percentage of the vehicle group mean for each individual study and expressed as mean+/−sem for both studies. Percentage of behaviours compared to vehicle treated animals were analysed statistically using a one way ANOVA with Dunnett's comparison, p<0.05 considered significant, FIG. 10.
The effect of SB792988A (0.03, 0.1, 0.3, 1.0, 3.0 and 10 mg/kg, n=9 for 1.0 mg/kg, n=10 per group for the 0.03, 0.1 and 3.0 mg/kg groups, n=20 per group for the 0.3 and 10 mg/kg groups) or vehicle (saline n=20) given orally 60 minutes prior to injection of mustard oil (3% mustard oil, 70% ethanol in saline) were examined on pain behaviour. The total number of visceral pain related behaviours, which consisted primarily of abdominal arching, were counted over a 25 minute period and the animals culled by cervical dislocation. Behaviours were normalised as the percentage of the vehicle group mean and expressed as mean+/−sem. Data was combined from two studies and normalised as the percentage of the vehicle group mean for each individual study and expressed as mean+/−sem for both studies. Percentage of behaviours compared to vehicle treated animals were analysed statistically using a one way ANOVA with Dunnett's comparison, p<0.05 considered significant, FIG. 11.

[2] = tested on: rats; experiment: FCA induced hypersensitivity rat model (intraplantar FCA, weight bearing); type: in vivo; conditions: 1 hour post dose; for weight bearing % reversal: 24 hrs after FCA; for effect on FCA induced hypersensitivity: p.o., intraplantar FCA
Experimental: (§1) Naïve weight bearing readings were taken. The hypersensitivity to pain was measured using the Rat incapacitance tester (Linton instruments). All rats (180-220 g) received an intraplantar injection of 100 ul of FCA (Freund's complete adjuvant) into the left hind paw. The FCA was sonicated for 15 minutes prior to use. 24 hrs after administration of the FCA, pre-dose weight bearing readings were taken. All animals were then ranked and randomised for dosing according to their FCA window (predose difference in grams—naïve difference in grams). Rats with FCA window less than 30 were excluded from the study.
Animals were then dosed orally with either vehicle, SB42457 (0.01, 0.1, 1 and 10 mg/kg p.o.) or celecoxib (10 mg/kg p.o.) as appropriate according to ranking and randomisation. Animals were assessed in the weight bearing apparatus 1 hour post dose.
The study was blind and randomised by FCA window using the Latin square method. % reversals were calculated by using the naïve, pre-dose and post dose values as follows: % Reversal=[(Pre-dose−Post-dose)/(Pre-dose−Naïve)]×100.
Graphs were plotted using Prism3. Statistical analysis was carried out using ANOVA and Fischer LSD test from statistical package Statistica 6.
In this study a positive control was also tested (celecoxib).
as §1, with “(200-220” for “(180-220”
Animals were then dosed orally with vehicle, SB-792988-A (0.01, 0.1, 1 and 10 mg/kg p.o.), SB-399885-A (10 mg/kg p.o.) or celecoxib (10 mg/kg p.o.) as appropriate according to ranking and randomisation. Animals were assessed in the weight bearing apparatus 1 hour post dose.
Graphs and were plotted using Prism3. Statistical analysis was carried out using ANOVA and Fischer LSD test from statistical package Statistica 6.

[3] = 0.03 mg/kg orally 60 minutes prior to mustard oil
[4] = 0.1 mg/kg orally 60 minutes prior to mustard oil
[5] = 1.0 mg/kg orally 60 minutes prior to mustard oil
[6] = 3.0 mg/kg orally 60 minutes prior to mustard oil
[7] = 10 mg/kg orally 60 minutes prior to mustard oil

SMILES | reduction in behaviours compared to vehicle treated animals [1, 3] [%] | reduction in behaviours compared to vehicle treated animals [1, 4] [%] | reduction in behaviours compared to vehicle treated animals [1, 5] [%] | reduction in behaviours compared to vehicle treated animals [1, 6] [%] | reduction in behaviours compared to vehicle treated animals [1, 7] [%] | statistical significance of reduction in behaviours vs vehicle [1] | weight bearing % reversal ([2]; 0.01 mg/kg p.o., Table 5) [%] | weight bearing % reversal ([2]; 0.1 mg/kg p.o., Table 5) [%] | weight bearing % reversal ([2]; 1 mg/kg p.o., Table 5) [%] | weight bearing % reversal ([2]; 10 mg/kg p.o., Table 5) [%] | effect on FCA induced hypersensitivity [2] | reduction in behaviours compared to vehicle treated animals ([1]; 0.3 mg/kg orally 60 minutes prior to mustard oil) [%] | weight bearing % reversal ([2]; 0.01 mg/kg p.o., Table 7) [%] | weight bearing % reversal ([2]; 0.1 mg/kg p.o., Table 7) [%] | weight bearing % reversal ([2]; 1 mg/kg p.o., Table 7) [%] | weight bearing % reversal ([2]; 10 mg/kg p.o., Table 7) [%]
O=S(=O)(c1ccccc1)c1cnc2c(N3CCNCC3)cccc2c1 [SB742457, 3-Phenylsulfonyl-8-piperazin-1-yl-quinoline] | 56 | 56 | 44 | 50 | 62 | statistically significant from vehicle treated animals at all doses examined | 27.68 ± 6.39 | 53.09 ± 5.68 | 60.17 ± 6.73 | 76.97 ± 7.17 | dose-dependent reversal | – | – | – | – | –
Cl.O=S(=O)(c1cccc(F)c1)c1cnc2c(N3CCNCC3)cccc2c1 [SB792988A, 3-[(3-Fluorophenyl)sulfonyl]-8-(1-piperazinyl)quinoline Hydrochloride] | 38 | 40 | 55 | 65 | 74 | statistically significant from vehicle treated animals at all doses examined | – | – | – | – | dose-dependent reversal | 42 | 22.91 ± 4.13 | 22.11 ± 5.18 | 38.76 ± 5.88 | 67.00 ± 5.08
